Laboratory results reported in patent US20230031385A1, “STORAGE MEDIA FOR PRESERVATION OF CORNEAL TISSUE” (National Health Research Institutes, priority 2021, published 2023).

Legend:
[1] = test system: human corneal endothelium cells (HCECs); test: Annexin V-FITC / propidium iodide flow cytometry apoptosis assay; type: cell-based; details: 50 μM and 100 μM, 24 hours (FIG. 3)
Description: Annexin V staining is a common method for detecting apoptotic cells. The human corneal endothelium cells (HCECs) were assessed for apoptosis using flow cytometry staining with annexin-V conjugated with fluorescein isothiocyanate and propidium iodide (FIG. 3). HCECs were cultured in DMEM/F12 containing 50 μM and 100 μM ferulic acid. Briefly, HCECs were grown to confluence and incubated for 24 hours in 24-well plates using the same conditions as in the previous sets of experiments. After centrifugation and washing in cold PBS, HCECs for annexin V-FITC staining were resuspended in binding buffer (10 mM HEPES, 140 mM sodium chloride, 5 mM potassium chloride, 1 mM magnesium dichloride, 2.5 mM calcium dichloride, pH 7.4) at a concentration of 10^6 cells/ml. Five hundred microliters containing 5×10^5 cells was transferred to a culture tube, and […] of FITC-conjugated annexin V was added. Positive controls were provided for both apoptotic and necrotic (10% ethanol) cell death. For simultaneous scoring of the differential cellular response, aliquots of 10^4 cells each were immediately processed for fluorescence-activated cell sorting (FACS) on a FACS Calibur flow cytometer (Becton-Dickinson). Excitation parameters were set at λEx=488 nm, and fluorescence emission was detected at […]=518 nm for annexin V-FITC.

[2] = test system: bovine corneal endothelium cells; test: TUNEL assay of AAPH induced apoptosis; type: cell-based; details: ferulic acid 50 μM and 100 μM, AAPH 25 mM (FIG. 4)
Description: Terminal deoxynucleotidyl transferase (TdT) end-labeling (TUNEL) method (DeadEnd™ Fluorometric TUNEL System, Promega, Madison, USA) was used for apoptosis analysis according to the manufacturer's instructions (FIG. 4). Briefly, bovine cornea endothelium cells were seeded on LabTek® chamber slides at a density of 1×10^4 cells/well for 24 hours, treated with 50 μM ferulic acid for 3 hours, and then reacted with 25 mM AAPH (2,2′-azobis(2-amidinopropane dihydrochloride) for 6 hours. Slides were immersed in 4% formaldehyde for fixation, cells were permeabilized with Triton® X-100. Then equilibration buffer, nucleotide mix and rTdT enzyme were added in for apoptosis cells labeling. Finally, counterstaining the nucleus with propidium iodide, and observed by fluorescence microscopy. The green fluorescence spots in FIG. 4 represents the apoptotic cells (fluorescein-12-dUTP) with a red background (propidium iodide).

Compound: COc1cc(/C=C/C(=O)O)ccc1O [ferulic acid]
- cytotoxicity (apoptosis, annexin-V/PI) [1]: no cytotoxic effect
- protection against AAPH induced damage (apoptosis, TUNEL) [2]: prevented and/or antagonized AAPH (25 mM) induced damage
